Patent US20260078108A1, “SOLID FORMS OF A ROCK INHIBITOR” (REDX PHARMA PLC, priority 2022, published 2026)

Key:
[1] = biological target: T1, Norepinephrine transporter (Homo sapiens, UniProt P23975); test: CEREP panel norepinephrine transporter uptake (h), [3H]NE incorporation; type: cell-based; details: HCl salt tested; [3H]NE incorporation into cells
T1 construct: expressed in transfected cells
From the text: (§1) The use of in vitro pharmacological screening against a diverse range of targets (receptors, ion channels, enzymes and transporters) is used to identify undesirable off-target activity that may cause adverse drug reactions in humans. Screening panels (e.g. SafetyScreen44™ Panel, Eurofins) comprise a selection of off-targets linked with known issues in humans that could hinder or halt the development of drug candidates or market withdrawal if discovered after a drug is approved. The HCl salts of the S enantiomer and the R enantiomer of compound A were tested against a panel of such targets.
(§2) The tests were carried out according to the methods described in the following tables and indicated literature references.

[2] = biological target: T2, CB2 (h) (Homo sapiens, UniProt P34972); test: CEREP panel CB2 (h) antagonist effect, cAMP HTRF; type: cell-based; details: HCl salt tested; CHO cells, WIN 55212-2 (3 nM)
T2 construct: expressed in transfected cells; host or cells: CHO cells
From the text: as §1, §2

T1 sequence (P23975 whole entry): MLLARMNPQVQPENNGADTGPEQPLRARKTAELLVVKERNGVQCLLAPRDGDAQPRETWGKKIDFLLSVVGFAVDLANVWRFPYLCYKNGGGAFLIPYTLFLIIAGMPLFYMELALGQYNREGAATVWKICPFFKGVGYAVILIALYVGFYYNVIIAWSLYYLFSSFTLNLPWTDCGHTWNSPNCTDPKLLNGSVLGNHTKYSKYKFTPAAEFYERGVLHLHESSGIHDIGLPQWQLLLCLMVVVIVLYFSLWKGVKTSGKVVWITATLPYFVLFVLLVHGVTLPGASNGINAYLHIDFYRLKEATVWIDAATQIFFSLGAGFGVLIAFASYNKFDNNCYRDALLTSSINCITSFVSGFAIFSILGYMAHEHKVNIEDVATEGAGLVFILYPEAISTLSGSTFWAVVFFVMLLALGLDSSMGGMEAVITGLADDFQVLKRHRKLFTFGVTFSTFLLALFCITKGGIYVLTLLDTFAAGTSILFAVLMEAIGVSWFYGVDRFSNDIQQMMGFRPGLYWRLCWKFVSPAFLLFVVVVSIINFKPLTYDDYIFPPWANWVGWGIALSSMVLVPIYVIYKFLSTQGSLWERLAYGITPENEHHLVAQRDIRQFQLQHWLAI
T2 sequence (P34972 whole entry): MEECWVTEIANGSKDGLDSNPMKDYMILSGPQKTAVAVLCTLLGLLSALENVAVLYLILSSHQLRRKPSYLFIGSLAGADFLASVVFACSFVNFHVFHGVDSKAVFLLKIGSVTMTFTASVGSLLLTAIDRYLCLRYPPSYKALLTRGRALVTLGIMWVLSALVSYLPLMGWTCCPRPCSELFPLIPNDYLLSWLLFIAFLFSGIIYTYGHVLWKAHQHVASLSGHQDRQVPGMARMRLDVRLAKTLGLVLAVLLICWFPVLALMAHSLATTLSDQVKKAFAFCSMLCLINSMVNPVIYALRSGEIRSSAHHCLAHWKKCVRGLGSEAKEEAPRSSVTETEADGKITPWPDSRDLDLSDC

Row | SMILES | IC50 [1] [µM] | IC50 [2] [µM] | CB2 (h) (antagonist effect) (IC50) [2]
1 | NCc1ccc(C(=O)Nc2ccncc2F)cc1-c1cccc(C(=O)Nc2ccc(SC[C@@H]3CCOC3=O)cc2)c1 [R-enantiomer] | 8.9 | 38 | –
2 | NCc1ccc(C(=O)Nc2ccncc2F)cc1-c1cccc(C(=O)Nc2ccc(SC[C@H]3CCOC3=O)cc2)c1 [S-enantiomer] | 21 | – | Inactive
